Test results as given in US5138101A, “Recovery of high-boiling aldehydes from rhodium-catalyzed hydroformylation processes” (Eastman Kodak Company, priority 1991, dated 1992).

Columns and labels:
[1] = Extraction and back-extraction with p-diisopropylbenzene or 1,7-octadiene: rhodium concentration in both phases, composition of extraction solution; type: physicochemical
Experimental: Examples […] illustrate yet another embodiment of the process of the present invention wherein extraction solution containing dissolved rhodium is back-extracted with either hydroformylation solvent or olefinic feedstock to reduce the concentration of rhodium in the extraction solution.
The general procedure described in Examples 31-48 was used to extract 60.5 mL of hydroformylation product solution obtained by the hydroformylation of 1,7 octadiene in the presence of a catalyst system comprising rhodium and BISBI phosphine (Reference Example 9). […] The extraction flask was charged with the hydroformylation product solution, 37 mL methanol, 12 mL water and […] [Na] provided as sodium oleate.
For Example 88, the extraction mixture was stirred at room temperature for 30 minutes and then drained into a calibrated, addition funnel and allowed to stand for about five minutes to permit phase separation. The volume of the hydroformylation product solution (organic) phase was 45 mL and the volume of the extraction solution phase was 65 ml. Samples of each phase were taken for rhodium and product composition analyses.
For Example 89, the extraction solution phase separated in Example 88 was added to a clean 250 mL flask along with 30 mL of p-diisopropylbenzene and the mixture was stirred at 50° C. for 30 minutes, was allowed to stand at 50° C. for about 5 minutes to permit phase separation and then each phase was separated and analyzed for composition and rhodium concentration.
For Example 90, the extraction solution separated in Example 89 was added to a clean 250 mL flask along with another 30 mL of p-diisopropylbenzene hydroformylation solvent. The mixture was agitated at 50° C. for thirty minutes, allowed to stand at 50° C. for 5 minutes to permit phase separation and each phase was analyzed for composition and rhodium concentration.
This scheme would be useful in a counter-current extraction method for recycling recovered hydroformylation product solution as well as in using the olefinic feed to the reactor as a back extraction solvent for recovering soluble rhodium from the methanol/water extract.
Example 91 was carried out using the procedure described in Examples 88. The flask was charged with 62 mL of a hydroformylation product solution (Reference Example 10) having a rhodium concentration 166 mg/L and containing 3.01 g of C9-enal, 12.69 g of C10-dial and 37.84 grams of p-diisopropylbenzene. Methanol (37 ml), water (16 ml) and 78 mg Na (as sodium 2-ethylhexanoate) were added to the flask. This mixture was stirred at 50° C. for 30 minutes and then allowed to stand for 5 minutes at 50° C. to permit phase separation. The hydroformylation product solution (organic) phase and the extraction solution phase were both sampled and analyzed for rhodium concentration. The 2 phases were drained into a clean, graduated addition funnel and the volumes of the two phases were measured. The volume of the organic layer was 43 mL and the extraction solution layer was 62 mL.
For Example 92, the extraction solution phase produced in Example 91 was added to a clean, 250 mL flask along with 30 mL of p-diisopropylbenzene and the mixture was stirred at 50° C. for 30 minutes and then allowed to separate into two phases. The two phases were analyzed for rhodium concentration and composition. The mixture was drained into a clean addition funnel to separate the two phases. For Example 93, the extraction solution phase of Example 92 and 30 mL of 1,7-octadiene were added to a clean, 250 mL flask. This mixture was stirred at 50° C. for 30 minutes and then allowed to separate into two phases which were analyzed for rhodium concentration.
The amounts (g) of C9-enal, C10-dial in the sample of hydroformylation product solution initially extracted and in the methanol/water extraction solutions resulting from Examples 91, 92 and 93 are given in Table XIII. The ratio given in Table XIII is the weight ratio of C10-dial:C9-enal. […]

[2] = Rhodium concentration in the extraction solution phase after extraction, with and without sodium carboxylate salt; type: physicochemical; conditions: for Rh Conc.: extraction solution phase
Experimental: Each experiment employed an extraction temperature of 50° C., an agitation period of 30 minutes and a phase separation period of 5 minutes followed by sampling of the extraction solution phase. One mL aliquots of the lower, extraction solution phase was sampled for Rh analysis.
The results of these experiments are shown in Table IV wherein Na Conc. and Rh Conc. are the sodium [Na] and rhodium [Rh] concentrations in mg/L in the extraction solution phase. Also set forth in Table IV are the partition coefficients obtained for the C9-enal isomers, C10-dial isomers and the p diisopropylbenzene hydroformylation solvent (H.S.) in each example.
[…] […] The extractions were carried out at 50° C. using 62 mL of each hydroformylation product solution and 50 mL of an extraction mixture consisting of a 3:1 volume ratio of methanol and water.
Each extraction employed an agitation period of 30 minutes and a phase separation period of 5 minutes followed by sampling of the extraction solution phase. One mL aliquots of the lower, extraction solution phase was sampled for Rh analysis. […]

[3] = Example 88, initial extraction, sodium oleate
[4] = Example 89, first back-extraction, p-diisopropylbenzene, 50° C.
[5] = Example 90, second back-extraction, p-diisopropylbenzene, 50° C.
[6] = Example 91, initial extraction, sodium 2-ethylhexanoate, 50° C.
[7] = Example 92, back-extraction, p-diisopropylbenzene, 50° C.
[8] = Example 94, initial extraction, no salt, 25° C.
[9] = Example 95, back-extraction, p-diisopropylbenzene, 50° C.

## [Rh] [Rh, rhodium]
[1]; [3]
  Rhodium Concentration, Extraction Solution Phase: 5.2 mg Rh per liter
  Rhodium Concentration, Organic Phase: 235 mg Rh per liter
[1]; [4]
  Rhodium Concentration, Extraction Solution Phase: 1.6 mg Rh per liter
  Rhodium Concentration, Organic Phase: 7.2 mg Rh per liter
[1]; [5]
  Rhodium Concentration, Extraction Solution Phase: 1.0 mg Rh per liter
  Rhodium Concentration, Organic Phase: 1.2 mg Rh per liter
[1]; [6]
  Rhodium Concentration, Extraction Solution Phase: 6.2 mg Rh per liter
  Rhodium Concentration, Organic Phase: 216 mg Rh per liter
[1]; [7]
  Rhodium Concentration, Extraction Solution Phase: 1.0 mg Rh per liter
  Rhodium Concentration, Organic Phase: 7.0 mg Rh per liter
[1]; Example 93, back-extraction, 1,7-octadiene, 50° C.
  Rhodium Concentration, Organic Phase: < 1 mg Rh per liter
[1]; Example 93, back-extraction, 1,7-octadiene, 50° C., listed as Rhodium
  Rhodium Concentration, Extraction Solution Phase: < 1 mg Rh per liter
[1]; Example 93, back-extraction, 1,7-octadiene, 50° C., listed as rhodium
  Rhodium Concentration, Extraction Solution Phase: below detection limits
[1]; [8]
  Rhodium Concentration, Extraction Solution Phase: 37 mg Rh per liter
  Rhodium Concentration, Organic Phase: 195 mg Rh per liter
[1]; [9]
  Rhodium Concentration, Extraction Solution Phase: 33 mg Rh per liter
  Rhodium Concentration, Organic Phase: 24 mg Rh per liter
[2]; Example 31, 50° C., Na 0
  Rh Conc. in extraction solution phase: 120 mg/L
[2]; Example 32, Na 82 mg/L as 2-ethylhexanoate
  Rh Conc. in extraction solution phase: 54 mg/L
[2]; Example 33, Na 164 mg/L as 2-ethylhexanoate
  Rh Conc. in extraction solution phase: 37 mg/L
[2]; Example 34, Na 327 mg/L as 2-ethylhexanoate
  Rh Conc. in extraction solution phase: 28 mg/L
[2]; Example 35, Na 653 mg/L as 2-ethylhexanoate
  Rh Conc. in extraction solution phase: 20 mg/L
[2]; Example 36, Na 1307 mg/L as 2-ethylhexanoate
  Rh Conc. in extraction solution phase: 12 mg/L
[2]; Example 37, 50° C., Na 0
  Rh Conc. in extraction solution phase: 56 mg/L
[2]; Example 38, Na 82 mg/L as oleate
  Rh Conc. in extraction solution phase: 6 mg/L
[2]; Example 39, Na 164 mg/L as oleate
  Rh Conc. in extraction solution phase: 5 mg/L
[2]; Example 40, Na 327 mg/L as oleate
  Rh Conc. in extraction solution phase: 4 mg/L
[2]; Example 41, Na 653 mg/L as oleate
  Rh Conc. in extraction solution phase: 4 mg/L
[2]; Example 42, Na 1307 mg/L as oleate
  Rh Conc. in extraction solution phase: 3.6 mg/L
[2]; Example 43, 50° C., Na 0
  Rh Conc. in extraction solution phase: 72 mg/L
[2]; Example 44, Na 82 mg/L as n butyrate
  Rh Conc. in extraction solution phase: 39 mg/L
[2]; Example 45, Na 164 mg/L as n butyrate
  Rh Conc. in extraction solution phase: 32 mg/L
[2]; Example 46, Na 327 mg/L as n butyrate
  Rh Conc. in extraction solution phase: 25 mg/L
[2]; Example 47, Na 653 mg/L as n butyrate
  Rh Conc. in extraction solution phase: 22 mg/L
[2]; Example 48, Na 1307 mg/L as n butyrate
  Rh Conc. in extraction solution phase: 15 mg/L
[2]; Example 49, methanol/water 37/27 mL, Na 0
  Rh Conc. in extraction solution phase: 18.6 mg/L
[2]; Example 50, methanol/water 37/27 mL, Na 100 as oleate
  Rh Conc. in extraction solution phase: 2.6 mg/L
[2]; Example 52, Ref. Ex. 1 (BISBI), MeOH:water 3:1, 50° C., Na 0
  Rh Conc. in extraction solution phase: 120 mg/L
[2]; Example 53, Ref. Ex. 1 (BISBI), Na 82 mg/L
  Rh Conc. in extraction solution phase: 54 mg/L
[2]; Example 54, Ref. Ex. 1 (BISBI), Na 164 mg/L
  Rh Conc. in extraction solution phase: 37 mg/L
[2]; Example 55, Ref. Ex. 1 (BISBI), Na 327 mg/L
  Rh Conc. in extraction solution phase: 28 mg/L
[2]; Example 56, Ref. Ex. 11 (TCHP), Na 0
  Rh Conc. in extraction solution phase: 7.6 mg/L
[2]; Example 57, Ref. Ex. 11 (TCHP), Na 82 mg/L
  Rh Conc. in extraction solution phase: 5.2 mg/L
[2]; Example 58, Ref. Ex. 11 (TCHP), Na 164 mg/L
  Rh Conc. in extraction solution phase: 2.6 mg/L
[2]; Example 59, Ref. Ex. 11 (TCHP), Na 327 mg/L
  Rh Conc. in extraction solution phase: 1.4 mg/L
[2]; Example 60, Ref. Ex. 12 (TBP), Na 0
  Rh Conc. in extraction solution phase: 6.2 mg/L
[2]; Example 61, Ref. Ex. 12 (TBP), Na 82 mg/L
  Rh Conc. in extraction solution phase: 5.4 mg/L
[2]; Example 62, Ref. Ex. 12 (TBP), Na 164 mg/L
  Rh Conc. in extraction solution phase: 5.6 mg/L
[2]; Example 63, Ref. Ex. 12 (TBP), Na 327 mg/L
  Rh Conc. in extraction solution phase: 5.4 mg/L
[2]; Example 64, Ref. Ex. 7 (TPP), Na 0
  Rh Conc. in extraction solution phase: 7.6 mg/L
[2]; Example 65, Ref. Ex. 7 (TPP), Na 82 mg/L
  Rh Conc. in extraction solution phase: 2.0 mg/L
[2]; Example 66, Ref. Ex. 7 (TPP), Na 164 mg/L
  Rh Conc. in extraction solution phase: 2.2 mg/L
[2]; Example 67, Ref. Ex. 7 (TPP), Na 327 mg/L
  Rh Conc. in extraction solution phase: 1.8 mg/L
[2]; Example 68, Ref. Ex. 13 (TOP), Na 0
  Rh Conc. in extraction solution phase: 1.2 mg/L
[2]; Example 69, Ref. Ex. 13 (TOP), Na 82 mg/L
  Rh Conc. in extraction solution phase: 1.0 mg/L
[2]; Example 70, Ref. Ex. 13 (TOP), Na 164 mg/L
  Rh Conc. in extraction solution phase: < 1 mg/L
[2]; Example 71, Ref. Ex. 13 (TOP), Na 327 mg/L
  Rh Conc. in extraction solution phase: < 1 mg/L
[2]; Example 72, Ref. Ex. 26 (BISBI, TPP), Na 0
  Rh Conc. in extraction solution phase: 30 mg/L
[2]; Example 73, Ref. Ex. 26 (BISBI, TPP), Na 82 mg/L
  Rh Conc. in extraction solution phase: 10 mg/L
[2]; Example 74, Ref. Ex. 26 (BISBI, TPP), Na 164 mg/L
  Rh Conc. in extraction solution phase: 8.2 mg/L
[2]; Example 75, Ref. Ex. 26 (BISBI, TPP), Na 327 mg/L
  Rh Conc. in extraction solution phase: 6.8 mg/L
[2]; Example 76, Ref. Ex. 27 (BISBI, TCHP), Na 0
  Rh Conc. in extraction solution phase: 10 mg/L
[2]; Example 77, Ref. Ex. 27 (BISBI, TCHP), Na 82 mg/L
  Rh Conc. in extraction solution phase: 1.8 mg/L
[2]; Example 78, Ref. Ex. 27 (BISBI, TCHP), Na 164 mg/L
  Rh Conc. in extraction solution phase: 2.8 mg/L
[2]; Example 79
  Rh Conc.: < 1 mg [Rh] per liter
[2]; Example 80
  Rh Conc.: < 1 mg [Rh] per liter
[2]; Example 81
  Rh Conc.: 3.0 mg [Rh] per liter
[2]; Example 82
  Rh Conc.: < 1 mg [Rh] per liter
[2]; Example 83
  Rh Conc.: 2.0 mg [Rh] per liter
[2]; Example 84
  Rh Conc.: < 1 mg [Rh] per liter
[2]; Example 85
  Rh Conc.: < 1 mg [Rh] per liter
[2]; Example 86
  Rh Conc.: < 1 mg [Rh] per liter
[2]; Example 87
  Rh Conc.: 1.2 mg [Rh] per liter
